Results reported in PubChem BioAssay AID256 (DTP/NCI, 2004).
Several values for one entry are separate records, joined by “and”; a condition that tells them apart may be missing. Equal values may be shown once. Inconclusive results and toxic doses are left out.

Tested on: CD2F1 mice, L1210 leukemia ip, survival T/C
Assay: NCI In Vivo Anticancer Drug Screen. Data for tumor model L1210 Leukemia (intraperitoneal) in CD2F1 (CDF1) mice
Settings: higher = longer survival
In short: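 Implant tumor; dose compound or vehicle; measure endpoint in both groups; report treated divided by control.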

[1] = endpoint: mean survival time, dose: 75.0 mg/kg/injection, schedule: Q01DX001 (ip), vehicle: saline
[2] = endpoint: mean survival time, dose: 100.0 mg/kg/injection, schedule: Q04DX003 (ip), vehicle: saline with Tween-80
[3] = endpoint: mean survival time, dose: 200.0 mg/kg/injection, schedule: Q04DX003 (ip), vehicle: saline with Tween-80
[4] = endpoint: mean survival time, dose: 400.0 mg/kg/injection, schedule: Q04DX003 (ip), vehicle: saline with Tween-80
[5] = endpoint: mean survival time, dose: 25.0 mg/kg/injection, schedule: Q04DX002 (ip), vehicle: saline

In the case of `OC[CH2][Hg][Br]`, the T/C (endpoint: mean survival time, dose: 0.37 mg/kg/injection, schedule: Q01DX009 (ip), vehicle: saline) is reported as 90 % of control, the T/C (endpoint: mean survival time, dose: 0.75 mg/kg/injection, schedule: Q01DX009 (ip), vehicle: saline) is reported as 92 % of control and the T/C (endpoint: mean survival time, dose: 1.5 mg/kg/injection, schedule: Q01DX009 (ip), vehicle: saline) is reported as 95 % of control. The T/C (endpoint: mean survival time, dose: 3.0 mg/kg/injection, schedule: Q01DX009 (ip), vehicle: saline) was 93 % of control.

For `C=CCON`, the T/C [1] was 100 % of control.

For `Cc1ccc(S(=O)(=O)NC(=O)C(=[N+]=[N-])c2ccc([N+](=O)[O-])cc2)cc1`, the T/C (endpoint: median survival time, dose: 25.0 mg/kg/injection, schedule: Q04DX002 (ip), vehicle: saline with Tween-80) was 100 % of control, the T/C (endpoint: median survival time, dose: 50.0 mg/kg/injection, schedule: Q04DX002 (ip), vehicle: saline with Tween-80) was 90 % of control and the T/C (endpoint: median survival time, dose: 100.0 mg/kg/injection, schedule: Q04DX002 (ip), vehicle: saline with Tween-80) was 90 % of control. The T/C (endpoint: median survival time, dose: 200.0 mg/kg/injection, schedule: Q04DX002 (ip), vehicle: saline with Tween-80) was 90 % of control.

With `O=C1CC2CCC1C2Cl` (stereo not drawn) the T/C (endpoint: mean survival time, dose: 6.25 mg/kg/injection, schedule: Q04DX003 (ip), vehicle: saline with Tween-80) was 101 % of control, the T/C (endpoint: mean survival time, dose: 12.5 mg/kg/injection, schedule: Q04DX003 (ip), vehicle: saline with Tween-80) was 113 % of control and the T/C (endpoint: mean survival time, dose: 25.0 mg/kg/injection, schedule: Q04DX003 (ip), vehicle: saline with Tween-80) was 97 % of control. The T/C (endpoint: mean survival time, dose: 50.0 mg/kg/injection, schedule: Q04DX003 (ip), vehicle: saline with Tween-80) was 97 % of control.

With `Nc1nc2nc[n-]c2c(=O)[nH]1.[NH2-].[NH2-].[NH2-].[NH2-].[NH2-].[Ru+6]` the T/C (endpoint: mean survival time, dose: 6.25 mg/kg/injection, schedule: Q04DX003 (ip), vehicle: water) was 96 % of control, the T/C (endpoint: mean survival time, dose: 12.5 mg/kg/injection, schedule: Q04DX003 (ip), vehicle: water) was 96 % of control and the T/C (endpoint: mean survival time, dose: 25.0 mg/kg/injection, schedule: Q04DX003 (ip), vehicle: water) was 102 % of control.

In the case of `Cc1ccc(NN=O)nc1`, the T/C (endpoint: median survival time, dose: 1.5 mg/kg/injection, schedule: Q01DX009 (ip), vehicle: water) is reported as 110 % of control, the T/C (endpoint: median survival time, dose: 1.56 mg/kg/injection, schedule: Q01DX009 (ip), vehicle: water) is reported as 114 % of control and the T/C (endpoint: median survival time, dose: 3.0 mg/kg/injection, schedule: Q01DX009 (ip), vehicle: water) is reported as 114 % of control. For the same compound, the T/C (endpoint: median survival time, dose: 3.12 mg/kg/injection, schedule: Q01DX009 (ip), vehicle: water) was 123 % of control, the T/C (endpoint: median survival time, dose: 12.0 mg/kg/injection, schedule: Q01DX009 (ip), vehicle: water) was 156 % of control and the T/C (endpoint: median survival time, dose: 24.0 mg/kg/injection, schedule: Q01DX009 (ip), vehicle: water) was 115 % of control and 106 % of control.

For `CCOC(Cc1cccc2ccccc12)(c1ccccc1)c1ccccc1`, the T/C [2] was 101 % of control, the T/C [3] was 98 % of control and the T/C [4] was 101 % of control.

With `O=C(COc1cc(Cl)c(Cl)cc1Cl)OCCN(CCOC(=O)COc1cc(Cl)c(Cl)cc1Cl)C(=O)COc1ccc(Cl)cc1` the T/C (endpoint: mean survival time, dose: 100.0 mg/kg/injection, schedule: Q04DX003 (ip), vehicle: other) was 93 % of control, the T/C (endpoint: mean survival time, dose: 200.0 mg/kg/injection, schedule: Q04DX003 (ip), vehicle: other) was 96 % of control and the T/C (endpoint: mean survival time, dose: 400.0 mg/kg/injection, schedule: Q04DX003 (ip), vehicle: other) was 107 % of control.

In the case of `CN(C)CCNCCN(C)C`, the T/C [1] is reported as 100 % of control, the T/C (endpoint: mean survival time, dose: 150.0 mg/kg/injection, schedule: Q01DX001 (ip), vehicle: saline) is reported as 100 % of control and the T/C (endpoint: mean survival time, dose: 300.0 mg/kg/injection, schedule: Q01DX001 (ip), vehicle: saline) is reported as 102 % of control.

`Cn1c(=O)[nH]c2c(nc(-c3ccc(Cl)cc3)n2CCc2ccccc2)c1=O` was tested, and the T/C (endpoint: mean survival time, dose: 7.8 mg/kg/injection, schedule: Q01DX005 (ip), vehicle: other) was 100 % of control, the T/C (endpoint: mean survival time, dose: 15.6 mg/kg/injection, schedule: Q01DX005 (ip), vehicle: other) was 95 % of control and the T/C (endpoint: mean survival time, dose: 31.3 mg/kg/injection, schedule: Q01DX005 (ip), vehicle: other) was 95 % of control. The T/C (endpoint: mean survival time, dose: 62.5 mg/kg/injection, schedule: Q01DX005 (ip), vehicle: other) was 95 % of control and the T/C (endpoint: mean survival time, dose: 125.0 mg/kg/injection, schedule: Q01DX005 (ip), vehicle: other) was 95 % of control.

With `COC1OC(COC(C)=O)C(n2cnc3c2c(=O)n(C)c(=O)n3C)C=C1NC(C)=O` (stereo not drawn) the T/C (endpoint: mean survival time, dose: 12.5 mg/kg/injection, schedule: Q01DX005 (ip), vehicle: distilled water + Tween-80) was 94 % of control, the T/C (endpoint: mean survival time, dose: 25.0 mg/kg/injection, schedule: Q01DX005 (ip), vehicle: distilled water + Tween-80) was 96 % of control and the T/C (endpoint: mean survival time, dose: 50.0 mg/kg/injection, schedule: Q01DX005 (ip), vehicle: distilled water + Tween-80) was 90 % of control. For the same compound, the T/C (endpoint: mean survival time, dose: 100.0 mg/kg/injection, schedule: Q01DX005 (ip), vehicle: distilled water + Tween-80) was 94 % of control and the T/C (endpoint: mean survival time, dose: 200.0 mg/kg/injection, schedule: Q01DX005 (ip), vehicle: distilled water + Tween-80) was 108 % of control.

`CC1CCCCCCCCCCC12OCCO2` (stereo not drawn) was tested, and the T/C (endpoint: mean survival time, dose: 100.0 mg/kg/injection, schedule: Q04DX002 (ip), vehicle: saline with Tween-80) was 87 % of control, the T/C (endpoint: mean survival time, dose: 200.0 mg/kg/injection, schedule: Q04DX002 (ip), vehicle: saline with Tween-80) was 98 % of control and the T/C (endpoint: mean survival time, dose: 400.0 mg/kg/injection, schedule: Q04DX002 (ip), vehicle: saline with Tween-80) was 106 % of control.

In the case of `CCN(CC)CCNc1cc(OC)cc2cccnc12`, the T/C (endpoint: mean survival time, dose: 6.25 mg/kg/injection, schedule: Q04DX002 (ip), vehicle: saline) is reported as 98 % of control, the T/C (endpoint: mean survival time, dose: 12.5 mg/kg/injection, schedule: Q04DX002 (ip), vehicle: saline) is reported as 98 % of control and the T/C [5] is reported as 95 % of control.

In the case of `C=C1C(=O)OC2CC(C)C3C(O)C(O)C(O)C3(C)CC12` (stereo not drawn), the T/C [2] is reported as 102 % of control and the T/C [3] is reported as 104 % of control.

`CCCCC=C1CC(C)CCC(C)C1` (stereo not drawn) was tested, and the T/C (endpoint: mean survival time, dose: 100.0 mg/kg/injection, schedule: Q04DX003 (ip), vehicle: saline) was 101 % of control, the T/C (endpoint: mean survival time, dose: 200.0 mg/kg/injection, schedule: Q04DX003 (ip), vehicle: saline) was 104 % of control and the T/C (endpoint: mean survival time, dose: 400.0 mg/kg/injection, schedule: Q04DX003 (ip), vehicle: saline) was 104 % of control.

In the case of `c1cnc2c(c1)ccc1ncccc12`, the T/C (endpoint: mean survival time, dose: 12.5 mg/kg/injection, schedule: Q01DX009 (ip), vehicle: saline with Tween-80) is reported as 91 % of control, the T/C (endpoint: mean survival time, dose: 25.0 mg/kg/injection, schedule: Q01DX009 (ip), vehicle: saline with Tween-80) is reported as 109 % of control and the T/C (endpoint: mean survival time, dose: 50.0 mg/kg/injection, schedule: Q01DX009 (ip), vehicle: saline with Tween-80) is reported as 96 % of control.

For `OCCNc1ccc(I)cc1`, the T/C [2] was 105 % of control, the T/C [3] was 112 % of control and the T/C [4] was 103 % of control.

For `COC(=O)C1=NC=NC1=[N+]=[N-]`, the T/C (endpoint: mean survival time, dose: 10.0 mg/kg/injection, schedule: Q01DX001 (ip), vehicle: saline) was 96 % of control and the T/C (endpoint: mean survival time, dose: 20.0 mg/kg/injection, schedule: Q01DX001 (ip), vehicle: saline) was 93 % of control.

For `CSc1nc(Cl)cc(/N=C/N(C)C)n1`, the T/C (endpoint: mean survival time, dose: 100.0 mg/kg/injection, schedule: Q01DX009 (ip), vehicle: saline with Tween-80) was 102 % of control and the T/C (endpoint: mean survival time, dose: 200.0 mg/kg/injection, schedule: Q01DX009 (ip), vehicle: saline with Tween-80) was 98 % of control.

For `Cc1ccc(NC(=O)Oc2ccc(F)cc2Cl)cc1NC(=O)Oc1ccc(F)cc1Cl`, the T/C (endpoint: mean survival time, dose: 100.0 mg/kg/injection, schedule: Q01DX001 (ip), vehicle: saline with Tween-80) was 103 % of control, the T/C (endpoint: mean survival time, dose: 200.0 mg/kg/injection, schedule: Q01DX001 (ip), vehicle: saline with Tween-80) was 101 % of control and the T/C (endpoint: mean survival time, dose: 400.0 mg/kg/injection, schedule: Q01DX001 (ip), vehicle: saline with Tween-80) was 95 % of control.

For `N.N.N.N.N.N#CN=C(N)N.[Co+3].[O-][Cl+3]([O-])([O-])[O-]`, the T/C [5] was 97 % of control, the T/C (endpoint: mean survival time, dose: 50.0 mg/kg/injection, schedule: Q04DX002 (ip), vehicle: saline) was 101 % of control and the T/C (endpoint: mean survival time, dose: 100.0 mg/kg/injection, schedule: Q04DX002 (ip), vehicle: saline) was 101 % of control.

For `O=C(CBr)c1cc(-c2ccccc2)nc2c(Cl)cc(Cl)cc12`, the T/C (endpoint: mean survival time, dose: 100.0 mg/kg/injection, schedule: Q01DX001 (ip), vehicle: saline) was 100 % of control, the T/C (endpoint: mean survival time, dose: 200.0 mg/kg/injection, schedule: Q01DX001 (ip), vehicle: saline) was 103 % of control and the T/C (endpoint: mean survival time, dose: 400.0 mg/kg/injection, schedule: Q01DX001 (ip), vehicle: saline) was 97 % of control.

For `CCCCCCCCCCCCOCCC(=O)O`, the T/C (endpoint: mean survival time, dose: 75.0 mg/kg/injection, schedule: Q04DX003 (ip), vehicle: saline) was 97 % of control, the T/C (endpoint: mean survival time, dose: 150.0 mg/kg/injection, schedule: Q04DX003 (ip), vehicle: saline) was 103 % of control and the T/C (endpoint: mean survival time, dose: 300.0 mg/kg/injection, schedule: Q04DX003 (ip), vehicle: saline) was 95 % of control.

In the case of `COc1cccc2c1C(=O)c1c(O)c3c(c(O)c1C2=O)C[C@@](O)(C(C)O)C[C@@H]3OC1CC(N)C(O)C(C)O1` (stereo partly drawn), the T/C (endpoint: mean survival time, dose: 0.65 mg/kg/injection, schedule: Q01DX009 (ip), vehicle: saline) is reported as 112 % of control, the T/C (endpoint: mean survival time, dose: 1.08 mg/kg/injection, schedule: Q01DX009 (ip), vehicle: saline) is reported as 113 % of control and the T/C (endpoint: mean survival time, dose: 3.0 mg/kg/injection, schedule: Q04DX003 (ip), vehicle: saline) is reported as 120 % of control. For the same compound, the T/C (endpoint: mean survival time, dose: 13.3 mg/kg/injection, schedule: Q01DX009 (ip), vehicle: saline) was 96 % of control.
